Experimental data as given in patent publication US20140121107A1, “HERBICIDAL COMPOSITIONS FOR TOLERANT OR RESISTANT RICE CROPS” (Bayer Intellectual Property GmbH, priority 1998, published 2014).
Structures can show the parent of a compound that is named as a salt.

Columns and labels:
Assay type in all cases: in vivo
Echinochloa crus-galli [1] = test: Herbicidal effect in rice weeds (field trial, Table 11); conditions: application in the 4-leaf stage, scoring 26 days after application
Method: (§1) Transgenic rice plants with a resistance to one or more herbicides (A) together with typical weed plants were grown in the open on 2×5 m plots under natural field conditions; alternatively, weed infestation occurred naturally when the rice plants were grown. Fields were set up for field rice or alternatively also for paddy rice.
(§2) 2, 4, 6 and 8 weeks after the application, the herbicidal activity of the active substances or active substance mixtures was scored visually with reference to the treated plots in comparison to untreated control plots. The damage to, and the development of, all aerial parts of the plants was recorded. Scoring was done on the basis of a percentage sale (100% action=all plants destroyed; 50% action=50% of the plants and green parts of the plants destroyed; 0% action=no recognizable effect=like control plot. The mean of the score values of in each case 4 plots was calculated.

Echinochloa crus-galli [2] = test: Herbicidal effect in rice broad-leaved weeds (Table 2); conditions: application in the 3-4-leaf stage, scoring 2 weeks after application
Method: as §1, §2

Cyperus difformis [3] = test: Herbicidal effect in rice weeds (field trial, Table 5); conditions: application in the 3-leaf stage, scoring 36 days after application
Method: as §1
(§3) […] The damage to, and the development of, all aerial parts of the plants was recorded. Scoring was done on the basis of a percentage sale (100% action=all plants destroyed; 50% action=50% of the plants and green parts of the plants destroyed; 0% action=no recognizable effect=like control plot. The mean of the score values of in each case 4 plots was calculated.

Ipomoea sp. = test: Herbicidal effect in rice weeds (Table 3); conditions: application in the 4-leaf stage, scoring 2 weeks after application
Method: as §1, §2

Echinochloa crus galli [4] = test: Herbicidal effect in rice weeds (field trial, Table 4); conditions: application in the 4-leaf stage, scoring 42 days after application
Method: as §1, §2

Cyperus iria = test: Herbicidal effect in rice weeds (field trial, Table 6); conditions: application in the 3-leaf stage, scoring 42 days after application
Method: as §1, §2

Echinochloa crus galli [5] = test: Herbicidal effect in rice weeds (field trial, Table 7); conditions: application in the 3-leaf stage, scoring 42 days after application
Method: as §1, §2

Aeschynomene rudis = test: Herbicidal effect in rice weeds (field trial, Table 8); conditions: application in the 3-leaf stage, scoring 28 days after application
Method: as §1, §2

Echinochloa crus galli [6] = test: Herbicidal effect in rice weeds (field trial, Table 9); conditions: application in the 5-6-leaf stage, scoring 36 days after application
Method: as §1, §3

Cyperus difformis [7] = test: Herbicidal effect in rice weeds (field trial, Table 10); conditions: 15 g A.S./ha; application in the 7-leaf stage; scoring 36 days after application
Method: as §1
The damage to, and the development of, all aerial parts of the plants was recorded.

CCCC(=NOCC(C)Oc1ccc(Cl)cc1)C1=C(O)CC(C2CCCSC2)CC1=O (centres unmarked) [(B4.4)]
Herbicidal action (%) against Echinochloa crus-galli (Echinochloa crus-galli [1]; 37.5 g A.S./ha): 50%
Herbicidal action (%) against Echinochloa crus-galli (Echinochloa crus-galli [1]; 75 g A.S./ha): 83%

COC(=O)c1ccccc1CS(=O)(=O)NC(=O)Nc1nc(OC)cc(OC)n1 [(B2.3), methyl 2-[[[[[(4,6-dimethoxy-2-pyrimidinyl)amino]carbonyl]-amino]sulfonyl]methyl]benzoate]
Herbicidal action (%) against Echinochloa crus-galli (Echinochloa crus-galli [2]; 45 g A.S./ha): 0%
Herbicidal action (%) against Cyperus difformis (Cyperus difformis [3]; 35 g A.S./ha): 55%
Herbicidal action (%) against Cyperus difformis (Cyperus difformis [3]; 70 g A.S./ha): 87%

CP(=O)(O)CCC(N)C(=O)O (centres unmarked) [(A1.2), glufosinate-monoammonium salt]
Herbicidal action (%) against Echinochloa crus-galli (Echinochloa crus-galli [2]; 400 g A.S./ha): 93%
Herbicidal action (%) against Ipomoea sp. (Ipomoea sp.; 400 g A.S./ha): 93%
Herbicidal action (%) against Echinochloa crus galli (Echinochloa crus galli [4]; 250 g A.S./ha): 63%
Herbicidal action (%) against Echinochloa crus galli (Echinochloa crus galli [4]; 500 g A.S./ha): 87%
Herbicidal action (%) against Cyperus difformis (Cyperus difformis [3]; 400 g A.S./ha): 18%
Herbicidal action (%) against Cyperus difformis (Cyperus difformis [3]; 500 g A.S./ha): 40%
Herbicidal action (%) against Cyperus iria (Cyperus iria; 400 g A.S./ha): 35%
Herbicidal action (%) against Echinochloa crus galli (Echinochloa crus galli [5]; 400 g A.S./ha): 65%
Herbicidal action (%) against Aeschynomene rudis (Aeschynomene rudis; 250 g A.S./ha): 65%
Herbicidal action (%) against Aeschynomene rudis (Aeschynomene rudis; 500 g A.S./ha): 83%
Herbicidal action (%) against Echinochloa crus galli (Echinochloa crus galli [6]; 500 g A.S./ha): 18%
Herbicidal action (%) against Echinochloa crus-galli (Echinochloa crus-galli [1]; 250 g A.S./ha): 35%
Herbicidal action (%) against Echinochloa crus-galli (Echinochloa crus-galli [1]; 500 g A.S./ha): 75%

COc1nc(C)nc(NC(=O)NS(=O)(=O)c2ccccc2C(=O)O)n1 [(B2.5), 2-[[[[(4-methoxy-6-methyl-1,3,5-triazin-2-yl)amino]carbonyl]amino]sulfonyl]benzoic acid]
Herbicidal action (%) against Cyperus iria (Cyperus iria; 1 g A.S./ha): 35%

CCC(=O)Nc1ccc(Cl)c(Cl)c1 [(B1.4), N-(3,4-dichlorophenyl)-propanamide]
Herbicidal action (%) against Ipomoea sp. (Ipomoea sp.; 3360 g A.S./ha): 90%

CC(C)Oc1cc(-n2nc(C(C)(C)C)oc2=O)c(Cl)cc1Cl [(B1.21)]
Herbicidal action (%) against Cyperus iria (Cyperus iria; 250 g A.S./ha): 37%

CCS(=O)(=O)Oc1ccc2c(c1)C(C)(C)CO2 [(B2.15), 2,3-dihydro-3,3-dimethylbenzofuran-5-yl ethanesulfonate]
Herbicidal action (%) against Cyperus difformis (Cyperus difformis [3]; 200 g A.S./ha): 35%

CCC(CC)Nc1c([N+](=O)[O-])cc(C)c(C)c1[N+](=O)[O-] [(B1.5), N-(1-ethylpropyl)-2,6-dinitro-3,4-xylidine]
Herbicidal action (%) against Cyperus iria (Cyperus iria; 1000 g A.S./ha): 33%

Cc1nn(-c2cc(CC(Cl)C(=O)O)c(Cl)cc2F)c(=O)n1C(F)F (racemic) [(B2.13), (RS)-2-chloro-3-[2-chloro-5-(4-difluoromethyl-4,5-dihydro-3-methyl-5-oxo-1H-1,2,4-triazol-1-yl)-4-fluorophenyl]propionic acid]
Herbicidal action (%) against Cyperus difformis (Cyperus difformis [3]; 50 g A.S./ha): 28%

O=C(O)COc1ccc(Cl)cc1Cl [(B2.1), (2,4-dichlorophenoxy)acetic acid]
Herbicidal action (%) against Cyperus iria (Cyperus iria; 500 g A.S./ha): 62%

CCSC(=O)N1CCCCCC1 [(B1.1), S-ethyl azepane-1-thiocarboxylate]
Herbicidal action (%) against Echinochloa crus galli (Echinochloa crus galli [6]; 4480 g A.S./ha): 0%

CCOc1ccccc1OS(=O)(=O)NC(=O)Nc1nc(OC)cc(OC)n1 [(B2.4), 1-(4,6-dimethoxypyrimidin-2-yl)-3-(2-ethoxyphenoxysutfonyl)urea]
Herbicidal action (%) against Cyperus difformis (Cyperus difformis [7]): 40%

O=C(O)c1c(Cl)ccc2cc(Cl)cnc12 [(B1.3), 3,7-dichloroquinoline-8-carboxylic acid]
Herbicidal action (%) against Echinochloa crus galli (Echinochloa crus galli [5]; 560 g A.S./ha): 25%

CC1(C)CON(Cc2ccccc2Cl)C1=O [(B1.12), 2-(2-chlorobenzyl)-4,4-dimethyl-1,2-oxazolidin-3-one]
Herbicidal action (%) against Echinochloa crus galli (Echinochloa crus galli [4]; 400 g A.S./ha): 7%

CCc1cnc(C2=NC(C)(C(C)C)C(=O)N2)c(C(=O)O)c1 (centres unmarked) [(A3.2), imazethapyr]
Herbicidal action (%) against Echinochloa crus galli (Echinochloa crus galli [6]; 75 g A.S./ha): 67%

COc1cc(OC)nc(NC(=O)NS(=O)(=O)c2c(C(=O)O)cnn2C)n1 [(B2.8), 5-(4,6-dimethoxypyrimidin-2-ylcarbamoylsulfamoyl)-1-methylpyrazole-4-carboxylic acid]
Herbicidal action (%) against Cyperus difformis (Cyperus difformis [3]; 15 g A.S./ha): 65%

CCN(CC)C(=O)SCc1ccc(Cl)cc1 [(B1.2), S-4-chlorobenzyl diethylthiocarbamate]
Herbicidal action (%) against Cyperus iria (Cyperus iria; 1500 g A.S./ha): 57%
